Where a SMILES comes first, the peptide text is derived from it.
How the values were obtained:
Type in all cases: cell-based
A. baumannii ATCC19606 = assay: MIC, broth dilution, standard strain; details: broth dilution (CLSI), MHB, 37 °C, 16–20 h
Description: (§1) The standard strains, including S. aureus ATCC29213 and ATCC25923, E. faecalis ATCC29212, E. coli ATCC25922 and ATCC35218, A. baumannii ATCC19606, K. pneumoniae ATCC700603, and P. aeruginosa ATCC27853, were purchased from the China Center of Type Culture Collection (CCTCC). The clinical strains of the ESKAPE pathogens were isolated from the affiliated hospitals of Hubei University of Medicine. All of them were stored at −80 °C before use. The drug sensitivities of the clinical strains were determined by the Kirby–Bauer test.
(§2) The MICs were determined using the broth dilution method according to the guidelines of the Clinical and Laboratory Standards Institute (CLSI), as described in the previous studies. Briefly, the bacterial cells were incubated in Mueller–Hinton broth (MHB, Oxoid, Basingstoke, UK) at 37 °C and 150 rpm to the mid-growth phase and diluted to achieve a final concentration of 5 × 10^5 colony-forming units per milliliter (CFU/mL). Then, the cells were mixed with each peptide in different concentrations (1, 2, 4, 8, 16, 32, and 64 μg/mL). […] All experiments were repeated at least three times.

E. coli ATCC25922 = assay: MIC, broth dilution, standard strain; details: broth dilution (CLSI), MHB, 37 °C, 16–20 h
Description: as §1, §2

E. coli ATCC35218 = assay: MIC, broth dilution, standard strain; details: broth dilution (CLSI), MHB, 5 × 10^5 CFU/mL, 37 °C, 16–20 h, OD630, repeated at least three times
Description: as §1, §2

E. faecium ATCC29212 = assay: MIC, broth dilution, standard strain; details: broth dilution (CLSI), MHB, 37 °C, 16–20 h
Description: as §1, §2

K. pneumoniae ATCC700603 = assay: MIC, broth dilution, standard strain; details: broth dilution (CLSI), MHB, 5 × 10^5 CFU/mL, 37 °C, 16–20 h, OD630, repeated at least three times
Description: as §1, §2

P. aeruginosa ATCC27853 = assay: MIC, broth dilution, standard strain; details: broth dilution (CLSI), MHB, 37 °C, 16–20 h
Description: as §1, §2

S. aureus ATCC25923 = assay: MIC, broth dilution, standard strain; details: broth dilution (CLSI), MHB, 37 °C, 16–20 h
Description: as §1, §2

S. aureus ATCC29213 = assay: MIC, broth dilution, standard strain; details: broth dilution (CLSI), MHB, 37 °C, 16–20 h
Description: as §1, §2

[1] = test system: human red blood cells (hRBC); assay: Hemolytic activity determination; details: 2% (v/v) hRBC, 37 °C, 1 h; for curve of hemolysis% vs. peptide concentration (Figure 2): 0–512 μg/mL peptide, compared in words; for Hemolysis% at 256 μg/mL: 256 μg/mL peptide, OD540, 1% Triton X-100 = 100%, average ± standard error of three independent experiments
Description: Figure 2 Hemolytic activities of Ctriporin and its analogs against human red blood cells (hRBC). Hemolytic activities of Ctriporin (solid circle), CM1 (open circle), CM2 (open square), CM3 (upward triangle), CM4 (downward triangle), CM5 (half solid circle), CM6 (half solid square), and CM7 (half solid triangle), were measured against 2% (v/v) human red blood cells. The peptide concentrations are 0, 2, 4, 8, 16, 32, 64, 128, 256, and 512 μg/mL. The cells treated with 1% Triton X-100 were treated as 100% hemolysis. All experiments were repeated three times, and the data shown are the average ± standard error.
The hemolytic activities of the peptides were determined against human red blood cells (hRBCs). As described, sodium citrate-anticoagulated hRBCs were washed three times with 0.9% sodium chloride and diluted to a final concentration of 4% (v/v). Then, an equal volume of hRBC solutions was mixed with an equal volume of each peptide in a series of concentrations (0, 2, 4, 8, 16, 32, 64, 128, 256, and 512 μg/mL). After co-incubation at 37 °C for 1 h, the degree of hemolysis of the peptides was determined by detecting the release of hemoglobin from the damaged hRBCs by measuring the optical density at 540 nm (OD540). hRBCs in 0.9% sodium chloride and 1% Triton X-100 were considered 0% and 100% hemolysis, respectively. The results shown are the average ± standard error of data derived from three independent experiments. The percent hemolysis was calculated according to the following equation [53, 54]:Hemolysis (%) = 100 × (Asample − Ablank)/(Apositive − Ablank)

A. baumannii 19295 = assay: MIC, broth dilution, clinical isolate; details: CRE/MDR clinical isolate; broth dilution (CLSI), MHB, 5 × 10^5 CFU/mL, 37 °C, 16–20 h, OD630
Description: as §1, §2

A. baumannii 19462 = assay: MIC, broth dilution, clinical isolate; details: CRE/MDR clinical isolate; broth dilution (CLSI), MHB, 5 × 10^5 CFU/mL, 37 °C, 16–20 h, OD630
Description: as §1, §2

A. baumannii 19618 = assay: MIC, broth dilution, clinical isolate; details: CRE/MDR clinical isolate; broth dilution (CLSI), MHB, 5 × 10^5 CFU/mL, 37 °C, 16–20 h, OD630
Description: as §1, §2

E. coli 2678 = assay: MIC, broth dilution, clinical isolate; details: ESBL clinical isolate; broth dilution (CLSI), MHB, 5 × 10^5 CFU/mL, 37 °C, 16–20 h, OD630
Description: as §1, §2

E. coli 2687 = assay: MIC, broth dilution, clinical isolate; details: ESBL clinical isolate; broth dilution (CLSI), MHB, 5 × 10^5 CFU/mL, 37 °C, 16–20 h, OD630
Description: as §1, §2

E. faecium 898 = assay: MIC, broth dilution, clinical isolate; details: MDR clinical isolate; broth dilution (CLSI), MHB, 5 × 10^5 CFU/mL, 37 °C, 16–20 h, OD630
Description: as §1, §2

K. pneumoniae 9126 = assay: MIC, broth dilution, clinical isolate; details: CRE clinical isolate; broth dilution (CLSI), MHB, 5 × 10^5 CFU/mL, 37 °C, 16–20 h, OD630
Description: as §1, §2

P. aeruginosa 9014 = assay: MIC, broth dilution, clinical isolate; details: CRE/MDR clinical isolate; broth dilution (CLSI), MHB, 5 × 10^5 CFU/mL, 37 °C, 16–20 h, OD630
Description: as §1, §2

S. aureus 891 = assay: MIC, broth dilution, clinical isolate; details: MRSA clinical isolate; broth dilution (CLSI), MHB, 5 × 10^5 CFU/mL, 37 °C, 16–20 h, OD630
Description: as §1, §2

S. aureus 9124 = assay: MIC, broth dilution, clinical isolate; details: MRSA clinical isolate; broth dilution (CLSI), MHB, 5 × 10^5 CFU/mL, 37 °C, 16–20 h, OD630
Description: as §1, §2

S. capitis 3255 = assay: MIC, broth dilution, clinical isolate; details: MRSC clinical isolate; broth dilution (CLSI), MHB, 5 × 10^5 CFU/mL, 37 °C, 16–20 h, OD630
Description: as §1, §2

S. epidermidis 6943 = assay: MIC, broth dilution, clinical isolate; details: MRSE clinical isolate; broth dilution (CLSI), MHB, 5 × 10^5 CFU/mL, 37 °C, 16–20 h, OD630
Description: as §1, §2

S. epidermidis 9092 = assay: MIC, broth dilution, clinical isolate; details: MRSE clinical isolate; broth dilution (CLSI), MHB, 5 × 10^5 CFU/mL, 37 °C, 16–20 h, OD630
Description: as §1, §2

standard ESKAPE strains = details: broth dilution (CLSI), MHB, 37 °C, 16–20 h; range over all standard strains
Description: The ESKAPE pathogens represent the main threat to public health concerning antimicrobial resistance. Therefore, we first evaluated the antimicrobial activities of Ctriporin and its analogs against the standard ESKAPE strains. The minimum inhibitory concentration (MIC) was chosen as the index for the evaluation of each peptide’s activity. […] Note that the MICs of CM4 and CM7 are 4–32 and 8–32 μg/mL, respectively, indicating the existence of significant bacterial species deviations for the antimicrobial activity of these peptides. In addition, the replacement of specific residues, especially Pro^7, may harm the antimicrobial activities of the peptide.
as §1, §2

[2] = test system: clinical isolates of CRE and multidrug-resistant (MDR) A. baumannii; details: broth dilution (CLSI), MHB
Description: To further evaluate the antimicrobial potential of CM5 and CM6, the MICs of these two peptides, as well as the parent peptide Ctriporin, were determined against clinical antibiotic-resistant isolates of ESKAPE strains. […] Note that CRE and MDR A. baumannii are listed at the top of the pathogens threatening public health. Compared with the parent peptide Ctriporin, eight to sixteen times improvement in terms of antimicrobial activity was obtained through our peptide design strategy.
as §2

[3] = 5 × 10^5 CFU/mL, OD630, repeated at least three times

Structure (SMILES)	MICs (A. baumannii ATCC19606; [3]) [µg/mL]	MICs (E. coli ATCC25922; [3]) [µg/mL]	MICs (E. coli ATCC35218) [µg/mL]	MICs (E. faecium ATCC29212; [3]) [µg/mL]	MICs (K. pneumoniae ATCC700603) [µg/mL]	MICs (P. aeruginosa ATCC27853; [3]) [µg/mL]	MICs (S. aureus ATCC25923; [3]) [µg/mL]	MICs (S. aureus ATCC29213; [3]) [µg/mL]	curve of hemolysis% vs. peptide concentration (Figure 2) [1]	Hemolysis% at 256 μg/mL [1] [%]	MICs against the ESKAPE pathogens (range over the standard strains of Table 2) (standard ESKAPE strains) [µg/mL]	also measured
CC[C@H](C)[C@H](NC(=O)[C@H](C)NC(=O)[C@H](CCCCN)NC(=O)[C@@H]1CCCN1C(=O)[C@@H](NC(=O)[C@H](CC(C)C)NC(=O)[C@H](CCCCN)NC(=O)[C@H](Cc1c[nH]c2ccccc12)NC(=O)[C@H](CC(C)C)NC(=O)[C@@H](N)Cc1ccccc1)[C@@H](C)CC)C(=O)N[C@@H](CCCCN)C(=O)N[C@@H](CCCCN)C(=O)N[C@H](C(=O)N[C@@H](CCCCN)C(=O)N[C@@H](CO)C(=O)N[C@@H](CC(C)C)C(=O)N[C@H](C(=O)N[C@@H](CCCCN)C(=O)N[C@@H](CCCCN)C(N)=O)[C@@H](C)CC)C(C)C [CM5] (H-FLWKLIPKAIKKVKSLIKK-NH2)	2	8	4	8	8	4	4	4	decreased dramatically compared with Ctriporin	9.8 ± 0.6	2 to 8	MICs (A. baumannii 19295): 2 µg/mL; MICs (A. baumannii 19462): 2 µg/mL; MICs (A. baumannii 19618): 2 µg/mL; MICs (E. coli 2678): 8 µg/mL; MICs (E. coli 2687): 8 µg/mL; MICs (E. faecium 898): 4 µg/mL; MICs (K. pneumoniae 9126): 16 µg/mL; MICs (P. aeruginosa 9014): 8 µg/mL; MICs (S. aureus 891): 4 µg/mL; MICs (S. aureus 9124): 8 µg/mL; MICs (S. capitis 3255): 2 µg/mL; MICs (S. epidermidis 6943): 4 µg/mL; MICs (S. epidermidis 9092): 4 µg/mL; MIC values against clinical isolates of CRE and MDR A. baumannii [2]: 2 µg/mL
CC[C@H](C)[C@H](NC(=O)[C@H](C)NC(=O)[C@H](CCCCN)NC(=O)[C@H](CCCCN)NC(=O)[C@@H](NC(=O)[C@H](CC(C)C)NC(=O)[C@H](CCCCN)NC(=O)[C@H](Cc1c[nH]c2ccccc12)NC(=O)[C@H](CC(C)C)NC(=O)[C@@H](N)Cc1ccccc1)[C@@H](C)CC)C(=O)N[C@@H](CCCCN)C(=O)N[C@@H](CCCCN)C(=O)N[C@H](C(=O)N[C@@H](CCCCN)C(=O)N[C@@H](CCCCN)C(=O)N[C@@H](CC(C)C)C(=O)N[C@H](C(=O)N[C@@H](CCCCN)C(=O)N[C@@H](CCCCN)C(N)=O)[C@@H](C)CC)C(C)C [CM7] (H-FLWKLIKKAIKKVKKLIKK-NH2; N-terminus assumed)	8	32	16	32	32	8	32	32	positions closely to those of CM3	57.5 ± 9.8	8 to 32	MICs (A. baumannii ATCC19606; value in parentheses): 3.4 µM; MICs (E. coli ATCC25922; value in parentheses): 13.6 µM; MICs (E. faecium ATCC29212; value in parentheses): 13.6 µM; MICs (P. aeruginosa ATCC27853; value in parentheses): 3.4 µM; MICs (S. aureus ATCC25923; value in parentheses): 13.6 µM; MICs (S. aureus ATCC29213; value in parentheses): 13.6 µM

Source: publication PMC10974533, “Cationicity Enhancement on the Hydrophilic Face of Ctriporin Significantly Reduces Its Hemolytic Activity and Improves the Antimicrobial Activity against Antibiotic-Resistant ESKAPE Pathogens” (Toxins, 2024)
